From US11298353B2, “Anti-inflammatory composition” (OSTEONEUROGEN INC., priority 2019, dated 2022)

What was measured:
ONGHEPA1 cell line [1] = test: NOX4 expression in TGF-β-treated hepatic stellate cells (real-time PCR, ICC); type: cell-based, mouse; conditions: TGF-β 10 ng/ml + compound 50 μM, real-time PCR and ICC
Description: Using the ONGHEPA1 cell line (KCTC13086BP) which is a mouse hepatic stellate cell line, the expression of NOX4 in a group treated with TGF-β (10 ng/ml) and a group treated with TGF-β (10 ng/ml)+the compound (Formula 2; 50 μM) of the present invention was compared by real-time PCR and immunocytochemistry (ICC).

CD14 [2] = test: CD14 expression in LPS-treated RAW264.7 cells (Western blot); type: cell-based; conditions: LPS 100 ng/ml + compound 50 μM, 5 to 15 minutes after LPS
Description: In addition, in order to examine the effect of the compound of the present invention on the expression of CD14, the expression of CD14 in a group treated with LPS (100 ng/ml) and a group treated with 50 μM of the compound (Formula 2) of the present invention was compared by Western blot analysis.

RAW264.7 cell line [3] = test: Expression of inflammatory factors in LPS-treated macrophages (real-time PCR or ELISA); type: cell-based; conditions: LPS 100 ng/ml + compound 25 or 50 μM, 24 hours
Source text: In order to confirm the effect of the compound of the present invention in a special anti-inflammatory model, the anti-inflammatory effect of the compound of the present invention was examined using the RAW264.7 cell line (macrophage cell line).
Using the RAW264.7 cell line, the expression of inflammatory factors, INFα, IL-1β, CCL2 (MCP-1), CCL7 (MCP-3), CXCL2, CHOP and NOX1, in a group treated with LPS (lipopolysaccharide) and a group treated with LPS+the compound (Formula 2) of the present invention, was compared by real-time PCR or ELISA.
(§1) Specifically, the RAW264.7 cell line was cultured in RPMI liquid medium, and then divided into a normal control group (untreated), a group treated with LPS (100 ng/ml), and a group treated with the compound of the present invention (cells treated with 100 ng/ml of LPS and treated with 25 or 50 μM of the compound of the present invention). Each of the test groups treated was incubated for 24 hours, and then total RNA was extracted from the cell of each test group and synthesized into cDNA per 1 μg of total RNA, and real-time PCR for each inflammatory factor was performed. The real-time PCR was performed for […], and then the obtained data were statistically processed using t-test.

RAW264.7 cell line [4] = test: TNFα expression in macrophages treated with various concentrations of LPS (real-time PCR); type: cell-based; conditions: LPS 100 ng/ml to 10 μg/ml + compound 50 μM
Description: as §1
In addition, according to the same method as described above, the RAW264.7 cell line was treated with various concentrations (100 ng/ml to 10 μg/ml) of LPS, and the effect of treatment with 50 μM of the compound (Formula 2) of the present invention was examined.

ONGHEPA1 cell line [5] = test: Reactive oxygen species production in TGF-β-treated hepatic stellate cells (H2DCFDA staining); type: cell-based, mouse; conditions: TGF-β 10 ng/ml + compound 50 μM
Description: (§2) Using the ONGHEPA1 cell line, the production of reactive oxygen species (ROS) in a group treated with TGF-β (10 ng/ml) and a group treated with TGF-β (10 ng/ml)+the compound (Formula 2; 50 μM) of the present invention was compared by cell staining H2DCFDA (ThermoFischer, D399) which is a reactive oxygen species staining reagent, and the expression of CCL2 and CCL7 was compared by real-time PCR.

ONGHEPA1 cell line [6] = test: CCL2 and CCL7 expression in TGF-β-treated hepatic stellate cells (real-time PCR); type: cell-based, mouse; conditions: TGF-β 10 ng/ml + compound 50 μM
Description: as §2

[7] = system: diseased human lung fibroblasts (DHLFs); test: Transcriptome analysis of TGF-β-treated diseased human lung fibroblasts; type: cell-based; conditions: TGF-β 10 ng/ml + compound 50 μM, genes up-regulated at p<0.005
Description: Using diseased human lung fibroblasts (DHLFs) isolated from idiopathic pulmonary fibrosis patients, transcriptomes were analyzed comparatively between a group treated with TGF-β (10 ng/ml) and a group treated with TGF-β (10 ng/ml)+the compound (Formula 2) (50 μM) of the present invention.

CD14 [8] = biological target: T1, CD14 (Mus musculus, UniProt P10810); test: CD14 FITC immunofluorescence staining in LPS-treated RAW264.7 cells; type: cell-based; conditions: LPS 100 ng/ml + compound 50 μM
T1 construct: endogenous in cells; host or cells: RAW264.7
T1 sequence (P10810 16-336): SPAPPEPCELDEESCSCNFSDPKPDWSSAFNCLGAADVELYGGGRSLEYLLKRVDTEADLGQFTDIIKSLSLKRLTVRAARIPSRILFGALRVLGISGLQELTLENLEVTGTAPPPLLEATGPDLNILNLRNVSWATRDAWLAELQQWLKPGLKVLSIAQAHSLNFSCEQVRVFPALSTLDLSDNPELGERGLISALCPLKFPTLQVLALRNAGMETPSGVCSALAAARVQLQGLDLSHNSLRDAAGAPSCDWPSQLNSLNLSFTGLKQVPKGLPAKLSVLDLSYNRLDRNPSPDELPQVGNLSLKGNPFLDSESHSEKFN
Source text: To verify this determination, the change in expression of an early inflammatory response stage factor (a factor involved in the early stage of LPS-induced inflammatory response) by treatment with the compound (Formula 2) of the present invention was examined by immunofluorescence staining using FITC.
Looking at the control group in FIG. 9 (see FIG. 10 which is an enlarged view), it can be seen that FITC fluorescence is concentrated on the surface (membrane portion) of the cell. […] However, looking at the LPS-treated group (see FIG. 10 which is an enlarged view), it can be seen that the cell changes into a circular shape and FITC fluorescence is distributed throughout the cell without being concentrated on the surface of the cell. This means that when treated with LPS, CD14 did bind to LPS and endocytosis occurred. In the case of the group treated with the compound of the present invention (see FIG. 12 which is an enlarged view), the same pattern as that in the control group appeared despite LPS treatment.

COc1ccc(-c2cc(=O)c3c(O)c(OC)c(OCCN4CCNC(=O)C4)cc3o2)cc1OC [Formula 2]
increase in the expression of NOX4 (ONGHEPA1 cell line [1]): inhibited | increase in expression of CD14 (CD14 [2]): decreased | expression of CCL2 (MCP-1) (RAW264.7 cell line [3]): decreased | expression of CCL7 (MCP-3) (RAW264.7 cell line [3]): decreased | expression of CHOP (RAW264.7 cell line [3]): decreased | expression of CXCL2 (RAW264.7 cell line [3]): decreased | expression of IL-1β (RAW264.7 cell line [3]): decreased | expression of INFα (RAW264.7 cell line [3]): decreased | expression of NOX1 (RAW264.7 cell line [3]): decreased | expression of TNFα (RAW264.7 cell line [4]): blocked the expression of TNFα regardless of the concentration of LPS | production of reactive oxygen species (ONGHEPA1 cell line [5]): inhibited | expression of CCL2 (ONGHEPA1 cell line [6]): inhibited | expression of CCL7 (ONGHEPA1 cell line [6]): inhibited | inhibition of TGF-β up-regulated gene expression: NOX4 [7]: selected genes included NOX4 | activity of CD14 involved in the early stage of inflammatory response (CD14 [8]): inhibited | interaction between CD14 and LPS (CD14 endocytosis pattern) (CD14 [8]): blocked the interaction between CD14 and LPS
